Measurements reported in patent US4727082A, “Dihydropyridine compounds and pharmaceutical compositions containing them” (Yamanouchi Pharmaceutical Co., Ltd., priority 1984, dated 1988).
Read-outs that look alike come from different tables or passages of the source.

Tests used:
[1] = Hemodynamic effects in anesthetized open-chest dogs; type: in vivo, Mongrel dogs; settings: Canis lupus familiaris; for change in vivo at 0.3 mg/kg: 0.3 mg/kg iv; for change in vivo at 0.1 mg/kg: 0.1 mg/kg iv; for change in vivo at 1 mg/kg: 1.0 mg/kg iv
Method: Mongrel dogs of either sex were anesthetized with pentobarbital sodium (30 mg/kg iv). The animals were artificially ventilated with room air. The chest was opened at the left 4th intercostal space. Mean arterial blood pressure (MBP), heart rate (HR), left ventricular pressure (LVP), max. dLVP/dt, mean pulmonary arterial blood pressure (MPAP), cardiac output (CO) and coronary blood flow (Cor. BF) were measured. The test compounds were injected into the femoral vein. Hemodynamic effects of these compounds were compared with that of well known Ca^2+ -antagonists. Table 1 (column 1) indicates the percent changes of MBP and Cor. BF from control values induced by intravenous injection of test compounds.

coronary artery = assay: Coronary vasodilating effects, intracoronary injection in anesthetized dogs; type: in vivo, Mongrel dogs; settings: for Duration of action of coronary vasodilating effect: intracoronary injection; for ED100 pap (dose for 100% increase of Cor. BF): intracoronary, maximum response to papaverine 300 μg ia = 100%
Method: Mongrel dogs of either sex were anesthetized and ventilated as previously described. A thoracotomy was performed at the 4th intercostal space. Following an intravenous injection of […] (1000 units/kg), blood from the distal end of the cannulated carotid artery was pumped into circumflex branch of the left coronary artery using a servocontrolled peristaltic pump which maintained a constant perfusion pressure of 120 mmHg by means of a pump controller. An electromagnetic flow probe was inserted in the circuit to record blood flow through the cannulated coronary artery. The test compounds were administered directly into the rubber tubing connected close to the coronary artery cannula. Coronary vasodilating potency of the test compounds was by calculating the dose required to produce 100% increase of Cor. BF (ED100 pap), when the maximum responses to papaverine at a dose of 300 μg ia was expressed at 100% response.

Beta-adrenoceptor [2] = target: T1, Beta-adrenoceptor (Rattus norvegicus, UniProt P18090); assay: Intrinsic sympathomimetic activity (ISA), increase in heart rate; type: in vivo, male Wistar rats; settings: increase in HR, reserpinized rats, iv
T1 construct: from tissue; host or cells: heart in situ of anesthetized male Wistar rats (in vivo, i.v. dosing)
Method: (§1) The rats were pretreated with reserpine (8 mg/kg ip), 18 hr before experiments. […] The heart rate was measured with a cardiotachometer triggered by the QRS of the ECG (lead II) and recorded on a polygraph. After the control response to isoproterenol at a dose of 0.1 μg/kg iv was obtained, the test compound was injected iv in increasing doses at 20 min intervals.
In this series of experiments, intrinsic sympathomimetic activity (ISA) was also evaluated. The results are shown in Table 1 (column 4), wherein "-" represents that an increase in HR was scarcely observed, "+" represents an increase in HR of 10 to 19 beats/min, "++" represents an increase in HR of 20 to 29 beats/min, and "+++" represents an increase in HR of above 30 beats/min.

Beta-adrenoceptor [3] = target: T1, Beta-adrenoceptor; assay: Beta-adrenoceptor blocking effects: blockade of positive chronotropic response to isoproterenol; type: in vivo, male Wistar rats; settings: read-out: Beta Blocking ED50
Method: as §1

[4] = read-out: Cor. BF, percent change from control
[5] = read-out: MBP, percent change from control
[6] = 50% blockade of chronotropic response to isoproterenol 0.1 μg/kg iv, reserpinized, vagotomized rats, cumulative dose

T1 sequence (P18090 whole entry): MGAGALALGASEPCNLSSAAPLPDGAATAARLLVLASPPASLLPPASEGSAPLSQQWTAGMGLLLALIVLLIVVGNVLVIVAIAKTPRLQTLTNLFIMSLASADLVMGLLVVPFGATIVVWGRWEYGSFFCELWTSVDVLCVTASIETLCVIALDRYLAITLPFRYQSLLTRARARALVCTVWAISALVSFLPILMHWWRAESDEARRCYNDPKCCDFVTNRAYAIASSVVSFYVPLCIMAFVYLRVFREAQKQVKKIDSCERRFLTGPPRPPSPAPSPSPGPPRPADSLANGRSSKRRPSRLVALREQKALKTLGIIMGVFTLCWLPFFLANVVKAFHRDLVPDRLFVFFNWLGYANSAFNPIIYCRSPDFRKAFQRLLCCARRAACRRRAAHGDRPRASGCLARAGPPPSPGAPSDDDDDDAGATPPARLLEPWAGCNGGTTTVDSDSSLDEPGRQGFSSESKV

In the case of `COc1ccc([C@@H]2Sc3ccccc3N(CCN(C)C)C(=O)[C@@H]2OC(C)=O)cc1` [Diltiazem, reference compound], the change in vivo at 0.3 mg/kg [1, 4] is reported as 90%, the change in vivo at 0.3 mg/kg [1, 5] is reported as -30% and the “Duration of action of coronary vasodilating effect” value (from here on “Duration”) (coronary artery) is reported as 20 min. For the same compound, the “ED100 pap (dose for 100% increase of Cor. BF)” value (coronary artery) was 51 μg ia.

For `COC(=O)C1=C(C)NC(C)=C(C(=O)OC)C1c1cc([N+](=O)[O-])ccc1OCCNCC(O)COc1ccccc1` (stereo not drawn) [Example 1, dimethyl 4-[2-[2-(2-hydroxy-3-phenoxypropylamino)ethoxy]-5-nitrophenyl]-2,6-dimethyl-1,4-dihydropyridine-3,5-dicarboxylate], the ISA (Beta-adrenoceptor [2]) was “+++ (an increase in HR of above 30 beats/min)”, the change in vivo at 0.1 mg/kg [1, 4] was 21% and the change in vivo at 0.1 mg/kg [1, 5] was -7%. The change in vivo at 0.3 mg/kg [1, 4] was 69%, the change in vivo at 0.3 mg/kg [1, 5] was -17% and the “Duration” value (coronary artery) was 15 min. For the same compound, the “ED100 pap (dose for 100% increase of Cor. BF)” value (coronary artery) was 75 μg ia and the ED50 (Beta-adrenoceptor [3]; [6]) was 0.13 mg/kg.

In the case of `COC(=O)C1=C(C)NC(C)=C(C(=O)OC)C1c1cc([N+](=O)[O-])ccc1OCCCNCC(O)COc1ccccc1` (stereo not drawn) [Example 8, dimethyl 4-[2-[3-(2-hydroxy-3-phenoxypropylamino)propoxy]-5-nitrophenyl]-2,6-dimethyl-1,4-dihydropyridine-3,5-dicarboxylate], the ISA (Beta-adrenoceptor [2]) is reported as “+ (an increase in HR of 10 to 19 beats/min)”, the change in vivo at 1 mg/kg [1, 4] is reported as 10% and the change in vivo at 1 mg/kg [1, 5] is reported as -29%. For the same compound, the “Duration” value (coronary artery) was 60 min, the “ED100 pap (dose for 100% increase of Cor. BF)” value (coronary artery) was 645 μg ia and the ED50 (Beta-adrenoceptor [3]; [6]) was 0.31 mg/kg.

With `CCOC(=O)C1=C(C)NC(C)=C(C(=O)OC)C1c1cc([N+](=O)[O-])ccc1OCCCCNCC(O)COc1ccccc1` (stereo not drawn) [Example 10, ethyl methyl 4-[2-[4-(2-hydroxy-3-phenoxypropylamino)butoxy]-5-nitrophenyl]-2,6-dimethyl-1,4-dihydropyridine-3,5-dicarboxylate] the ISA (Beta-adrenoceptor [2]) was “-”, the change in vivo at 0.3 mg/kg [1, 4] was 26% and the change in vivo at 0.3 mg/kg [1, 5] was -12%. For the same compound, the “Duration” value (coronary artery) was greater than 60 min, the “ED100 pap (dose for 100% increase of Cor. BF)” value (coronary artery) was 400 μg ia and the ED50 (Beta-adrenoceptor [3]; [6]) was 0.73 mg/kg.

With `COC(=O)C1=C(C)NC(C)=C(C(=O)OC)C1c1cc([N+](=O)[O-])ccc1OCCCCCNCC(O)COc1ccccc1` (stereo not drawn) [Example 12, dimethyl 4-[2-[5-(2-hydroxy-3-phenoxypropylamino)pentyloxy]-5-nitrophenyl]-2,6-dimethyl-1,4-dihydropyridine-3,5-dicarboxylate] the ISA (Beta-adrenoceptor [2]) was “-”, the change in vivo at 0.3 mg/kg [1, 4] was 14% and the change in vivo at 0.3 mg/kg [1, 5] was -18%. The “Duration” value (coronary artery) was greater than 60 min, the “ED100 pap (dose for 100% increase of Cor. BF)” value (coronary artery) was 475 μg ia and the ED50 (Beta-adrenoceptor [3]; [6]) was 2.58 mg/kg.

For `COC(=O)C1=C(C)NC(C)=C(C(=O)OC)C1c1cc([N+](=O)[O-])ccc1OCCCCNCC(O)COc1ccccc1` (stereo not drawn) [Example 15, dimethyl 4-[2-[4-(2-hydroxy-3-phenoxypropylamino)butoxy]-5-nitrophenyl]-2,6-dimethyl-1,4-dihydropyridine-3,5-dicarboxylate], the ISA (Beta-adrenoceptor [2]) was “-”, the change in vivo at 1 mg/kg [1, 4] was 96% and the change in vivo at 1 mg/kg [1, 5] was -33%. For the same compound, the “Duration” value (coronary artery) was greater than 60 min, the “ED100 pap (dose for 100% increase of Cor. BF)” value (coronary artery) was 228 μg ia and the ED50 (Beta-adrenoceptor [3]; [6]) was 0.7 mg/kg.

For `COC(=O)C1=C(C)NC(C)=C(C(=O)OC)C1c1cc([N+](=O)[O-])ccc1OCCCCNC[C@H](O)COc1ccccc1` [Example 16, (S)-(-)-dimethyl 4-[2-[4-(2-hydroxy-3-phenoxypropylamino)butoxy]-5-nitrophenyl]-2,6-dimethyl-1,4-dihydropyridine-3,5-dicarboxylate], the ISA (Beta-adrenoceptor [2]) was “-”, the change in vivo at 1 mg/kg [1, 4] was 97% and the change in vivo at 1 mg/kg [1, 5] was -31%. For the same compound, the “Duration” value (coronary artery) was greater than 60 min, the “ED100 pap (dose for 100% increase of Cor. BF)” value (coronary artery) was 162 μg ia and the ED50 (Beta-adrenoceptor [3]; [6]) was 0.39 mg/kg.

With `COC(=O)C1=C(C)NC(C)=C(C(=O)OC)C1c1cc([N+](=O)[O-])ccc1OCCCCNC[C@@H](O)COc1ccccc1` [Example 17, (R)-(+)-dimethyl 4-[2-[4-(2-hydroxy-3-phenoxypropylamino)butoxy]-5-nitrophenyl]-2,6-dimethyl-1,4-dihydropyridine-3,5-dicarboxylate] the ISA (Beta-adrenoceptor [2]) was “-”, the change in vivo at 1 mg/kg [1, 4] was 94% and the change in vivo at 1 mg/kg [1, 5] was -35%. For the same compound, the “Duration” value (coronary artery) was greater than 60 min, the “ED100 pap (dose for 100% increase of Cor. BF)” value (coronary artery) was 158 μg ia and the ED50 (Beta-adrenoceptor [3]; [6]) was 3.53 mg/kg.

With `CCOC(=O)C1=C(C)NC(C)=C(C(=O)OCC)C1c1cc([N+](=O)[O-])ccc1OCCCCNCC(O)COc1ccccc1` (stereo not drawn) [Example 18, diethyl 4-[2-[4-(2-hydroxy-3-phenoxypropylamino)butoxy]-5-nitrophenyl]-2,6-dimethyl-1,4-dihydropyridine-3,5-dicarboxylate] the ISA (Beta-adrenoceptor [2]) was “-”, the change in vivo at 0.3 mg/kg [1, 4] was 20% and the change in vivo at 0.3 mg/kg [1, 5] was -13%. For the same compound, the “Duration” value (coronary artery) was 60 min, the “ED100 pap (dose for 100% increase of Cor. BF)” value (coronary artery) was 285 μg ia and the ED50 (Beta-adrenoceptor [3]; [6]) was 3.11 mg/kg.

For `COC(=O)C1=C(C)NC(C)=C(C(=O)OC)C1c1cc(S(C)(=O)=O)ccc1OCCCCNCC(O)COc1ccccc1` (stereo not drawn) [Example 23, dimethyl 4-[2-[4-(2-hydroxy-3-phenoxypropylamino)butoxy]-5-methylsulfonylphenyl]-2,6-dimethyl-1,4-dihydropyridine-3,5-dicarboxylate], the ISA (Beta-adrenoceptor [2]) was “-”, the change in vivo at 1 mg/kg [1, 4] was 64% and the change in vivo at 1 mg/kg [1, 5] was -32%. For the same compound, the “Duration” value (coronary artery) was greater than 60 min, the “ED100 pap (dose for 100% increase of Cor. BF)” value (coronary artery) was 780 μg ia and the ED50 (Beta-adrenoceptor [3]; [6]) was 0.03 mg/kg.

With `COC(=O)C1=C(C)NC(C)=C(C(=O)OC)C1c1cc(Cl)ccc1OCCCCNCC(O)COc1ccccc1` (stereo not drawn) [Example 24, dimethyl 4-[5-chloro-2-[4-(2-hydroxy-3-phenoxypropylamino)butoxy]phenyl]-2,6-dimethyl-1,4-dihydropyr idine-3,5-dicarboxylate] the ISA (Beta-adrenoceptor [2]) was “-”, the change in vivo at 1 mg/kg [1, 4] was 62% and the change in vivo at 1 mg/kg [1, 5] was -33%. The “Duration” value (coronary artery) was 60 min, the “ED100 pap (dose for 100% increase of Cor. BF)” value (coronary artery) was 245 μg ia and the ED50 (Beta-adrenoceptor [3]; [6]) was 1.5 mg/kg.

With `COC(=O)C1=C(C)NC(C)=C(C(=O)OC)C1c1cc(OC)ccc1OCCCCNCC(O)COc1ccccc1` (stereo not drawn) [Example 26, dimethyl 4-[2-[4-(2-hydroxy-3-phenoxypropylamino)butoxy]-5-methoxyphenyl]-2,6-dimethyl-1,4-dihydropyridine-3,5-dicarboxylate] the ISA (Beta-adrenoceptor [2]) was “-”, the change in vivo at 1 mg/kg [1, 4] was 43% and the change in vivo at 1 mg/kg [1, 5] was -38%. The “Duration” value (coronary artery) was 40 min, the “ED100 pap (dose for 100% increase of Cor. BF)” value (coronary artery) was 600 μg ia and the ED50 (Beta-adrenoceptor [3]; [6]) was 0.53 mg/kg.

With `COC(=O)C1=C(C)NC(C)=C(C(=O)OC)C1c1cc(SC)ccc1OCCCCNCC(O)COc1ccccc1.Cl` (stereo not drawn) [Example 28, dimethyl 4-[2-[4-(2-hydroxy-3-phenoxypropylamino)butoxy]-5-methylthiophenyl]-2,6-dimethyl-1,4-dihydropyridine-3,5-dicarboxylate hydrochloride] the ISA (Beta-adrenoceptor [2]) was “-”, the change in vivo at 1 mg/kg [1, 4] was 70% and the change in vivo at 1 mg/kg [1, 5] was -28%. The “Duration” value (coronary artery) was 30 min, the “ED100 pap (dose for 100% increase of Cor. BF)” value (coronary artery) was 555 μg ia and the ED50 (Beta-adrenoceptor [3]; iv) was 0.27 mg/kg.

In the case of `COC(=O)C1=C(C)NC(C)=C(C(=O)OC)C1c1ccccc1OCCCCNCC(O)COc1ccccc1` (stereo not drawn) [Example 34, dimethyl 4-[o-[4-(2-hydroxy-3-phenoxypropylamino)butoxy]phenyl]-2,6-dimethyl-1,4-dihydropyridine-3,5-dicarboxylate], the ISA (Beta-adrenoceptor [2]) is reported as “-”, the change in vivo at 0.3 mg/kg [1, 4] is reported as 3% and the change in vivo at 0.3 mg/kg [1, 5] is reported as -18%. For the same compound, the “Duration” value (coronary artery) was greater than 60 min, the “ED100 pap (dose for 100% increase of Cor. BF)” value (coronary artery) was 175 μg ia and the ED50 (Beta-adrenoceptor [3]; [6]) was 0.9 mg/kg.

For `COC(=O)C1=C(C)NC(C)=C(C(=O)OC)C1c1cc([N+](=O)[O-])ccc1OCCCCNCC(O)COc1ccc(NC(C)=O)cc1` (stereo not drawn) [Example 42, dimethyl 4-[2-[4-[3-(p-acetamidophenoxy)-2-hydroxypropylamino]butoxy]-5-nitrophenyl]-2,6-dimethyl-1,4-dihydropyridine-3,5-dicarboxylate], the ISA (Beta-adrenoceptor [2]) was “-”, the change in vivo at 1 mg/kg [1, 4] was 8% and the change in vivo at 1 mg/kg [1, 5] was -13%. For the same compound, the “Duration” value (coronary artery) was greater than 60 min, the “ED100 pap (dose for 100% increase of Cor. BF)” value (coronary artery) was 515 μg ia and the ED50 (Beta-adrenoceptor [3]; [6]) was 0.5 mg/kg.
